In patent US11708344B2, “Flavone derivatives for the treatment and prophylaxis of hepatitis B virus disease” (Hoffmann-La Roche Inc., priority 2018, dated 2023):

Assays:
[1] = test system: HBeAg (surrogate marker for cccDNA) in HepDES19 cells; assay: Engineered HepDES19 primary screen assay (HBeAg ELISA); assay type: cell-based, HBV; conditions: Hepatitis B virus, HepDES19, 120 h, read-out: IC50 (HBeAg level, HepDES19 primary screen assay), HepDES19 cells, 5 days compound incubation, HBeAg ELISA
Procedure, shortened: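 HepDES19 cells were induced by Tet withdrawal for 8 days, then treated with half-log compound dilutions (1% DMSO final) for 5 days at 37 °C. HBeAg was measured by ELISA as the cccDNA surrogate, viability by CCK-8, and IC50 from a 4-parameter logistic fit.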

[2] = test system: HBsAg in HBV-infected PHH; assay: Cryopreserved primary human hepatocytes (PHH) HBV infection assay, extracellular HBsAg (CLIA); assay type: cell-based; conditions: Hepatitis B virus, Hepatocyte, 216 h, read-out: HBsAg IC50, Cryopreserved PHH infected with HBV, 9 days post-compound treatment, extracellular HBsAg
Procedure, shortened: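 Cryopreserved PHH were infected with 5.8×10^6 HBV genome equivalents in medium with 4% PEG8000 and 1% DMSO. After 9 days of treatment, extracellular HBsAg was measured by CLIA, and IC50 was derived from a 4-parameter logistic fit.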

[3] = Human microsome stability assay; assay type: in vitro ADME; conditions: human liver microsomes, 1 μM test compound, 0.5 mg/mL microsomal protein, 37° C., pH 7.4, 0-30 minutes
Procedure, shortened: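 Compound (1 μM) incubated at 37 °C with human liver microsomes (0.5 mg/mL protein) in 100 mM potassium phosphate, pH 7.4, after 10 min preincubation; started with NADPH regenerating system. Sampled at 0–30 min, quenched with cold ACN; remaining parent quantified by LC-MS/MS, with no-NADPH controls.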

Cc1ccc(-c2cc(=O)c3cccc(Cl)c3o2)c(O[C@H]2C[C@@H](C(=O)NS(=O)(=O)C3CC3)C2)c1 [Example B052-A, Cis-3-[2-(8-chloro-4-oxo-chromen-2-yl)-5-methyl-phenoxy]-N-cyclopropylsulfonyl-cyclobutanecarboxamide]
IC50 [1]: 10.7 µM
IC50 [2]: 8.48 µM
Clearance of Human microsome [3]: 0.369 L/h/kg

Cc1cc(-c2cc(=O)c3cccc(Cl)c3o2)c(OCCC(=O)O)cc1C(F)(F)F [Example A044, 3-[2-(8-chloro-4-oxo-chromen-2-yl)-4-methyl-5-(trifluoromethyl)phenoxy]propanoic acid]
IC50 [1]: 2.52 µM
IC50 [2]: 1.77 µM
Clearance of Human microsome [3]: 0.369 L/h/kg

O=C(CCOc1cc(C(F)(F)F)ccc1-c1cc(=O)c2cccc(Cl)c2o1)NS(=O)(=O)C1CC1 [Example A084, 3-[2-(8-chloro-4-oxo-chromen-2-yl)-5-(trifluoromethyl)phenoxy]-N-cyclopropylsulfonyl-propanamide]
IC50 [1]: 1.45 µM
IC50 [2]: 1.02 µM
Clearance of Human microsome [3]: 0.45 L/h/kg

O=c1cc(-c2ccccc2O[C@H]2C[C@H](C(=O)O)C2)oc2c(Cl)cccc12 [Example B002-B, trans-3-[2-(8-chloro-4-oxo-chromen-2-yl)phenoxy]cyclobutanecarboxylic acid]
IC50 [1]: 0.112 µM
IC50 [2]: 3.35 µM
Clearance of Human microsome [3]: 0.369 L/h/kg

O=C(O)COCC(O)COc1cc(Br)ccc1-c1cc(=O)c2cccc(Cl)c2o1 (stereo not drawn) [Example C113, 2-[3-[5-bromo-2-(8-chloro-4-oxo-chromen-2-yl)phenoxy]-2-hydroxy-propoxy]acetic acid]
IC50 [1]: 1.28 µM
IC50 [2]: 8.89 µM
Clearance of Human microsome [3]: 0.369 L/h/kg

Cc1ccc(-c2cc(=O)c3cccc(Cl)c3o2)c(O[C@H]2C[C@@H](C(=O)O)C2)c1 [Example B018-A, Cis-3-[2-(8-chloro-4-oxo-chromen-2-yl)-5-methyl-phenoxy]cyclobutanecarboxylic acid]
IC50 [1]: 0.146 µM
IC50 [2]: 0.887 µM
Clearance of Human microsome [3]: 0.369 L/h/kg

O=C(O)COCCCOc1cc(OC(F)(F)F)ccc1-c1cc(=O)c2cccc(Cl)c2o1 [Example C014, 2-[3-[2-(8-chloro-4-oxo-chromen-2-yl)-5-(trifluoromethoxy)phenoxy]propoxy]acetic acid]
IC50 [1]: 2.19 µM
IC50 [2]: 7.8 µM
Clearance of Human microsome [3]: 0.482 L/h/kg

O=c1cc(-c2cc(C(F)(F)F)c(Br)cc2O[C@H]2C[C@H](C(=O)O)C2)oc2c(Cl)cccc12 [Example B024, Trans-3-[5-bromo-2-(8-chloro-4-oxo-chromen-2-yl)-4-(trifluoromethyl)phenoxy]cyclobutanecarboxylic acid]
IC50 [1]: 1.64 µM
IC50 [2]: 6.84 µM
Clearance of Human microsome [3]: 0.445 L/h/kg

O=C(O)COCCCOc1cc2c(cc1-c1cc(=O)c3cccc(Cl)c3o1)OCO2 [Example C015, 2-[3-[[6-(8-chloro-4-oxo-chromen-2-yl)-1,3-benzodioxo1-5-yl]oxy]propoxy]acetic acid]
IC50 [1]: 7.87 µM
IC50 [2]: 3.36 µM
Clearance of Human microsome [3]: 0.369 L/h/kg

COc1cc(OCCO[C@H]2C[C@@H](C(=O)O)C2)c(-c2cc(=O)c3cccc(Cl)c3o2)cc1OC(F)F [Example C086, cis-3-[2-[2-(8-chloro-4-oxo-chromen-2-yl)-4-(difluoromethoxy)-5-methoxy-phenoxy]ethoxy]cyclobutanecarboxylic acid]
IC50 [1]: 5.03 µM
IC50 [2]: 5.46 µM
Clearance of Human microsome [3]: 0.369 L/h/kg

O=c1cc(-c2ccc(C(F)(F)F)cc2OCCO[C@H]2C[C@@H](C(=O)O)C2)oc2c(Cl)cccc12 [Example C026, Cis-3-[2-[2-(8-chloro-4-oxo-chromen-2-yl)-5-(trifluoromethyl)phenoxy]ethoxy]cyclobutanecarboxylic acid]
IC50 [1]: 0.526 µM
IC50 [2]: 8.95 µM
Clearance of Human microsome [3]: 0.409 L/h/kg

CC(CC(=O)O)OC(=O)CC(C)Oc1cc(C(F)(F)F)ccc1-c1cc(=O)c2cccc(Cl)c2o1 (stereo not drawn) [Example A040, 3-[3-[2-(8-chloro-4-oxo-chromen-2-yl)-5-(trifluoromethyl)phenoxy]butanoyloxy]butanoic acid]
IC50 [1]: 0.525 µM
IC50 [2]: 7.94 µM
Clearance of Human microsome [3]: 0.369 L/h/kg

Cc1ccc(-c2cc(=O)c3cccc(Cl)c3o2)c(OCCCOCC(=O)O)c1 [Example C002, 2-[3-[2-(8-chloro-4-oxo-chromen-2-yl)-5-methyl-phenoxy]propoxy]acetic acid]
IC50 [1]: 0.348 µM
IC50 [2]: 2.43 µM
Clearance of Human microsome [3]: 0.369 L/h/kg

O=c1cc(-c2ccccc2OCCO[C@H]2C[C@@H](C(=O)O)C2)oc2c(Cl)cc(F)cc12 [Example C036-A, Cis-3-[2-[2-(8-chloro-6-fluoro-4-oxo-chromen-2-yl)phenoxy]ethoxy]cyclobutanecarboxylic acid]
IC50 [1]: 0.261 µM
IC50 [2]: 2.42 µM
Clearance of Human microsome [3]: 0.369 L/h/kg

O=C(O)[C@@H]1C[C@H](Oc2cc(Br)ccc2-c2cc(=O)c3cccc(Cl)c3o2)CN1S(=O)(=O)c1ccccc1 [Example B082]
IC50 [1]: 1.98 µM
IC50 [2]: 4.8 µM
Clearance of Human microsome [3]: 0.369 L/h/kg

O=C(O)[C@@H]1C[C@@H](Oc2cc(C(F)(F)F)ccc2-c2cc(=O)c3cccc(Cl)c3o2)CN1S(=O)(=O)c1ccccc1 [Example B076, (2S,4R)-1-(benzenesulfonyl)-4-[2-(8-chloro-4-oxo-chromen-2-yl)-5-(trifluoromethyl)phenoxy]pyrrolidine-2-carboxylic acid]
IC50 [1]: 0.111 µM
IC50 [2]: 1.31 µM
Clearance of Human microsome [3]: 0.369 L/h/kg

CC(CC(=O)O)Oc1cc(C(F)(F)F)ccc1-c1cc(=O)c2cccc(Cl)c2o1 (stereo not drawn) [Example A039, 3-[2-(8-chloro-4-oxo-chromen-2-yl)-5-(trifluoromethyl)phenoxy]butanoic acid]
IC50 [1]: 0.142 µM
IC50 [2]: 7.08 µM
Clearance of Human microsome [3]: 0.382 L/h/kg

CCOc1cc(-c2cc(=O)c3cccc(Cl)c3o2)c(OCCO[C@H]2C[C@@H](C(=O)O)C2)cc1OC [Example C084, cis-3-[2-[2-(8-chloro-4-oxo-chromen-2-yl)-4-ethoxy-5-methoxy-phenoxy]ethoxy]cyclobutanecarboxylic acid]
IC50 [1]: 15.1 µM
IC50 [2]: 5.21 µM
Clearance of Human microsome [3]: 0.369 L/h/kg

O=c1cc(-c2ccccc2OCCO[C@H]2C[C@H](C(=O)O)C2)oc2c(Cl)cccc12 [Example C025-B, Trans-3-[2-[2-(8-chloro-4-oxo-chromen-2-yl)phenoxy]ethoxy]cyclobutanecarboxylic acid]
IC50 [1]: 0.205 µM
IC50 [2]: 2.02 µM
Clearance of Human microsome [3]: 0.369 L/h/kg

COc1ccc(-c2cc(=O)c3cccc(Cl)c3o2)c(O[C@H]2C[C@@H](C(=O)O)C2)c1 [Example B011-A, Cis-3-[2-(8-chloro-4-oxo-chromen-2-yl)-5-methoxy-phenoxy]cyclobutanecarboxylic acid]
IC50 [1]: 0.851 µM
IC50 [2]: 2.32 µM
Clearance of Human microsome [3]: 0.501 L/h/kg

O=c1cc(-c2ccccc2OCCO[C@H]2C[C@H](C(=O)O)C2)oc2c(Cl)cc(F)cc12 [Example C036-B, Trans-3-[2-[2-(8-chloro-6-fluoro-4-oxo-chromen-2-yl)phenoxy]ethoxy]cyclobutanecarboxylic acid]
IC50 [1]: 0.77 µM
IC50 [2]: 5.58 µM
Clearance of Human microsome [3]: 0.369 L/h/kg

COc1cc(OCCO[C@H]2C[C@@H](C(=O)O)C2)c(-c2cc(=O)c3cccc(Cl)c3o2)cc1OCC1CC1 [Example C082, cis-3-[2-[2-(8-chloro-4-oxo-chromen-2-yl)-4-(cyclopropylmethoxy)-5-methoxy-phenoxy]ethoxy]cyclobutanecarboxylic acid]
IC50 [1]: 3.97 µM
IC50 [2]: 9.52 µM
Clearance of Human microsome [3]: 0.369 L/h/kg

O=C(O)[C@H](COc1cc(C(F)(F)F)ccc1-c1cc(=O)c2cccc(Cl)c2o1)NS(=O)(=O)C1CC1 [Example A096, (2S)-3-[2-(8-chloro-4-oxo-chromen-2-yl)-5-(trifluoromethyl)phenoxy]-2-(cyclopropylsulfonylamino)propanoic acid]
IC50 [1]: 0.114 µM
IC50 [2]: 1.24 µM
Clearance of Human microsome [3]: 0.369 L/h/kg

O=c1cc(-c2ccc(C3CC3)cc2O[C@H]2C[C@@H](C(=O)O)C2)oc2c(Cl)cccc12 [Example B035-A, cis-3-[2-(8-chloro-4-oxo-chromen-2-yl)-5-cyclopropyl-phenoxy]cyclobutanecarboxylic acid]
IC50 [1]: 0.16 µM
IC50 [2]: 1.46 µM
Clearance of Human microsome [3]: 0.508 L/h/kg

COc1cc(-c2cc(=O)c3cccc(Cl)c3o2)c(OCCCOCC(=O)O)cc1Br [Example C013, 2-[3-[5-bromo-2-(8-chloro-4-oxo-chromen-2-yl)-4-methoxy-phenoxy]propoxy]acetic acid]
IC50 [1]: 0.252 µM
IC50 [2]: 9.32 µM
Clearance of Human microsome [3]: 0.369 L/h/kg

O=c1cc(-c2cc3c(cc2OCCO[C@H]2C[C@@H](C(=O)O)C2)OCO3)oc2c(Cl)cccc12 [Example C043-A, Cis-3-[2-[[6-(8-chloro-4-oxo-chromen-2-yl)-1,3-benzodioxo1-5-yl]oxy]ethoxy]cyclobutanecarboxylic acid]
IC50 [1]: 2.68 µM
IC50 [2]: 8.67 µM
Clearance of Human microsome [3]: 0.369 L/h/kg
